In US20210395256A1, “TYROSINE KINASE INHIBITORS, COMPOSITIONS AND METHODS THERE OF” (Betta Pharmaceuticals Co., Ltd., priority 2018, published 2021):
Structures can show the parent of a compound that is named as a salt. Where two headings read alike, the source gives them in different places.

Target: TrkA kinase (Homo sapiens, UniProt P04629)
Test: TrkA kinase assay (mobility shift assay)
Type: biochemical
Details: read-out: Trk A Kinase IC50
Method in brief: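 Ten-point compound series was preincubated 10 min at room temperature with TrkA, then FAM-peptide plus ATP added in HEPES pH 7.5/Brij-35 buffer and reacted at 28 °C before EDTA quench.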

Chain of TrkA kinase (P04629 33-796): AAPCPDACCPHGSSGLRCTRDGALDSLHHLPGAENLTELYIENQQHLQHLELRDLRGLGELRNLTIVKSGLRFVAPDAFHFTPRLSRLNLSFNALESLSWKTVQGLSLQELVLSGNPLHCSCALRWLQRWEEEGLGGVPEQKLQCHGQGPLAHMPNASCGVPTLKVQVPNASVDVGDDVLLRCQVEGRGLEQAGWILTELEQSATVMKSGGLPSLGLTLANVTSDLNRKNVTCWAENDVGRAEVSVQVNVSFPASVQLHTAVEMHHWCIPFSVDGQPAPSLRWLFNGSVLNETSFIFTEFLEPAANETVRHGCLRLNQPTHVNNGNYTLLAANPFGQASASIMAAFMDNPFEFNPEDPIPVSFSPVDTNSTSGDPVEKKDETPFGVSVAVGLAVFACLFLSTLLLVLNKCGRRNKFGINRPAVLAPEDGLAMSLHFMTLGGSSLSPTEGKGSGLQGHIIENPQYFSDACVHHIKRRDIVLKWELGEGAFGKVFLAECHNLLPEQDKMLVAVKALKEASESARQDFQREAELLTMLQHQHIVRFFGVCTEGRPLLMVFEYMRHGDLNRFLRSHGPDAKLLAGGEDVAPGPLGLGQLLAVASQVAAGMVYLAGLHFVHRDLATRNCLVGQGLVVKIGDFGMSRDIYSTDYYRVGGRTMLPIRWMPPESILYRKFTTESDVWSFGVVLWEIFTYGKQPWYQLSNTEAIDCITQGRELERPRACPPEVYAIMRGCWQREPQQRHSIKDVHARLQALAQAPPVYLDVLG

Row | SMILES | IC50 (class symbols) [nM] | IC50 (numeric values) [nM]
1 | Fc1ccc(F)c([C@H]2CCCN2c2ccn3ncc(-c4nnc(-c5ccnc(N6CCOCC6)c5)[nH]4)c3n2)c1 [Compound 6, (R)-4-(4-(5-(5-(2-(2,5-difluorophenyl)pyrrolidin-1-yl)pyrazolo[1,5-a]pyrimidin-3-yl)-4H-1,2,4-triazol-3-yl)pyridin-2-yl)morpholine] | ≤ 10 | 
2 | Fc1ccc(F)c([C@H]2CCCN2c2ccn3ncc(-c4nc5ccc(C(F)(F)F)nc5[nH]4)c3n2)c1 [Compound 114, (R)-2-(5-(2-(2,5-difluorophenyl)pyrrolidin-1-yl)pyrazolo[1,5-a]pyrimidin-3-yl)-5-(trifluoromethyl)-3H-imidazo[4,5-b]pyridine] |  | 3.8
3 | Fc1ccc(F)c([C@H]2CCCN2c2ccn3ncc(-c4nc5cccc(Cl)c5[nH]4)c3n2)c1 [Compound 97, (R)-3-(7-chloro-1H-benzo[d]imidazol-2-yl)-5-(2-(2,5-difluorophenyl)pyrrolidin-1-yl)pyrazolo[1,5-a]pyrimidine] |  | 1.9
4 | CN(C)CCN(C)c1cc2[nH]c(-c3cnn4ccc(N5CCC[C@@H]5c5cc(F)ccc5F)nc34)nc2cc1C#N [Compound 168, (R)-2-(5-(2-(2,5-difluorophenyl)pyrrolidin-1-yl)pyrazolo[1,5-a]pyrimidin-3-yl)-6-((2-(dimethylamino)ethyl)(methyl)amino)-1H-benzo[d]imidazole-5-carbonitrile] | ≤ 10 | 
5 | N#Cc1cc2nc(-c3cnn4ccc(N5CCC[C@@H]5c5cc(F)ccc5F)nc34)[nH]c2cc1OCCO [Compound 150, (R)-2-(5-(2-(2,5-difluorophenyl)pyrrolidin-1-yl)pyrazolo[1,5-a]pyrimidin-3-yl)-6-(2-hydroxyethoxy)-1H-benzo[d]imidazole-5-carbonitrile] | ≤ 10 | 
6 | Fc1ccc(F)c([C@H]2CCCN2c2ccn3ncc(-c4nnc(C5CCC(F)(F)CC5)[nH]4)c3n2)c1 [Compound 41, (R)-3-(5-(4,4-difluorocyclohexyl)-4H-1,2,4-triazol-3-yl)-5-(2-(2,5-difluorophenyl)pyrrolidin-1-yl)pyrazolo[1,5-a]pyrimidine] |  | 3.92
7 | N#Cc1ccc2nc(-c3cnn4ccc(N5CCC[C@@H]5c5cc(F)ccc5F)nc34)[nH]c2c1 [Compound 107, (R)-2-(5-(2-(2,5-difluorophenyl)pyrrolidin-1-yl)pyrazolo[1,5-a]pyrimidin-3-yl)-1H-benzo[d]imidazole-6-carbonitrile] | ≤ 10 | 
8 | Fc1ccc(F)c([C@H]2CCCN2c2ccn3ncc(-c4nc5ccc(SC(F)(F)F)cc5[nH]4)c3n2)c1 [Compound 116, (R)-5-(2-(2,5-difluorophenyl)pyrrolidin-1-yl)-3-(6-((trifluoromethyl)thio)-1H-benzo[d]imidazol-2-yl)pyrazolo[1,5-a]pyrimidine] | 10 to 50 | 
9 | COc1cc2nc(-c3cnn4ccc(N5CCC[C@@H]5c5cc(F)ccc5F)nc34)nn2cc1OC [Compound 182, (R)-2-(5-(2-(2,5-difluorophenyl)pyrrolidin-1-yl)pyrazolo[1,5-a]pyrimidin-3-yl)-6,7-dimethoxy-[1,2,4]triazolo[1,5-a]pyridine] | 10 to 50 | 
10 | COc1ccc2nc(-c3cnn4ccc(N5CCC[C@@H]5c5cc(F)ccc5F)nc34)[nH]c2n1 [Compound 84, (R)-2-(5-(2-(2,5-difluorophenyl)pyrrolidin-1-yl)pyrazolo[1,5-a]pyrimidin-3-yl)-5-methoxy-3H-imidazo[4,5-b]pyridine] |  | 0.18
11 | Fc1ccc(F)c([C@H]2CCCN2c2ccn3ncc(-c4nc5ccc(N6CCN7CCC[C@@H]7C6)cc5[nH]4)c3n2)c1 [Compound 62, 5-((R)-2-(2,5-difluorophenyl)pyrrolidin-1-yl)-3-(6-((R)-hexahydropyrrolo[1,2-a]pyrazin-2(1H)-yl)-1H-benzo[d]imidazol-2-yl)pyrazolo[1,5-a]pyrimidine] | > 50 | 
12 | CC(C)C[C@H](N)C(=O)O[C@@H](C)c1nnc(-c2cnn3ccc(N4CCC[C@@H]4c4cc(F)ccc4F)nc23)[nH]1 [Compound 51, (S)-1-(5-(5-((R)-2-(2,5-difluorophenyl)pyrrolidin-1-yl)pyrazolo[1,5-a]pyrimidin-3-yl)-4H-1,2,4-triazol-3-yl)ethyl L-leucinate hydrochloride] |  | 3
13 | COc1cc2[nH]c(-c3cnn4ccc(N5CCC[C@@H]5c5ccccc5F)nc34)nc2cc1C#N [Compound 195, (R)-2-(5-(2-(2-fluorophenyl)pyrrolidin-1-yl)pyrazolo[1,5-a]pyrimidin-3-yl)-6-methoxy-1H-benzo[d]imidazole-5-carbonitrile] |  | 2.3
14 | N#Cc1cc2nc(-c3cnn4ccc(N5CCC[C@@H]5c5cc(F)ccc5F)nc34)[nH]c2cc1N1CCOCC1 [Compound 143, (R)-2-(5-(2-(2,5-difluorophenyl)pyrrolidin-1-yl)pyrazolo[1,5-a]pyrimidin-3-yl)-6-morpholino-1H-benzo[d]imidazole-5-carbonitrile] | ≤ 10 | 
15 | OCC(F)c1nnc(-c2cnn3ccc(N4CCC[C@@H]4c4cc(F)ccc4F)nc23)[nH]1 (stereo partly drawn) [Compound 52, 2-(5-(5-((R)-2-(2,5-difluorophenyl)pyrrolidin-1-yl)pyrazolo[1,5-a]pyrimidin-3-yl)-4H-1,2,4-triazol-3-yl)-2-fluoroethan-1-ol] |  | 1.66
16 | N#Cc1cc2nc(-c3cnn4ccc(N5CCC[C@@H]5c5cc(F)ccc5F)nc34)[nH]c2cc1N1CC[C@H](O)C1 [Compound 164, 2-(5-((R)-2-(2,5-difluorophenyl)pyrrolidin-1-yl)pyrazolo[1,5-a]pyrimidin-3-yl)-6-((S)-3-hydroxypyrrolidin-1-yl)-1H-benzo[d]imidazole-5-carbonitrile] | ≤ 10 | 
17 | CCC(O)(c1nnc(-c2cnn3ccc(N4CCC[C@@H]4c4cc(F)ccc4F)nc23)[nH]1)C(F)(F)F (stereo partly drawn) [Compound 28, 2-(5-(5-((R)-2-(2,5-difluorophenyl)pyrrolidin-1-yl)pyrazolo[1,5-a]pyrimidin-3-yl)-4H-1,2,4-triazol-3-yl)-1,1,1-trifluorobutan-2-ol] | > 50 | 
18 | Fc1ccc(F)c([C@H]2CCCN2c2ccn3ncc(-c4nnc(C5CCOC5)[nH]4)c3n2)c1 (stereo partly drawn) [Compound 3, 5-((R)-2-(2,5-difluorophenyl)pyrrolidin-1-yl)-3-(5-(tetrahydrofuran-3-yl)-4H-1,2,4-triazol-3-yl)pyrazolo[1,5-a]pyrimidine] | 10 to 50 | 
19 | Cc1ccnc2[nH]c(-c3cnn4ccc(N5CCC[C@@H]5c5cc(F)ccc5F)nc34)nc12 [Compound 122, (R)-2-(5-(2-(2,5-difluorophenyl)pyrrolidin-1-yl)pyrazolo[1,5-a]pyrimidin-3-yl)-7-methyl-3H-imidazo[4,5-b]pyridine] | 10 to 50 | 
20 | Fc1ccc(F)c([C@H]2CCCN2c2ccn3ncc(-c4nnc(-c5ccc6c(c5)OCC6)[nH]4)c3n2)c1 [Compound 61, (R)-5-(2-(2,5-difluorophenyl)pyrrolidin-1-yl)-3-(5-(2,3-dihydrobenzofuran-6-yl)-4H-1,2,4-triazol-3-yl)pyrazolo[1,5-a]pyrimidine] | ≤ 10 | 

More lines, now with the values ahead:

Row | IC50 (class symbols) [nM] | IC50 (numeric values) [nM] | SMILES
21 | ≤ 10 |  | Fc1ccc(F)c([C@H]2CCCN2c2ccn3ncc(-c4nc5ccc(F)nc5[nH]4)c3n2)c1 [Compound 108, (R)-2-(5-(2-(2,5-difluorophenyl)pyrrolidin-1-yl)pyrazolo[1,5-a]pyrimidin-3-yl)-5-fluoro-3H-imidazo[4,5-b]pyridine]
22 | ≤ 10 |  | N#Cc1cc2nc(-c3cnn4ccc(N5CCC[C@@H]5c5cc(F)ccc5F)nc34)[nH]c2cc1Br [Compound 151, (R)-6-bromo-2-(5-(2-(2,5-difluorophenyl)pyrrolidin-1-yl)pyrazolo[1,5-a]pyrimidin-3-yl)-1H-benzo[d]imidazole-5-carbonitrile]
23 | 10 to 50 |  | Cc1cc2nc(-c3cnn4ccc(N5CCC[C@@H]5c5cc(F)ccc5F)nc34)oc2cc1OC(F)F [Compound 179, (R)-6-(difluoromethoxy)-2-(5-(2-(2,5-difluorophenyl)pyrrolidin-1-yl)pyrazolo[1,5-a]pyrimidin-3-yl)-5-methylbenzo[d]oxazole]
24 |  | 27 | N#Cc1cc2[nH]c(-c3cnn4ccc(N5CCC[C@@H]5c5cc(F)ccc5F)nc34)nc2cc1C(F)(F)F [Compound 157, (R)-2-(5-(2-(2,5-difluorophenyl)pyrrolidin-1-yl)pyrazolo[1,5-a]pyrimidin-3-yl)-5-(trifluoromethyl)-1H-benzo[d]imidazole-6-carbonitrile]
25 | ≤ 10 |  | Oc1cc2nc(-c3cnn4ccc(N5CCC[C@@H]5c5cc(F)ccc5F)nc34)[nH]c2cc1O [Compound 117, (R)-2-(5-(2-(2,5-difluorophenyl)pyrrolidin-1-yl)pyrazolo[1,5-a]pyrimidin-3-yl)-1H-benzo[d]imidazole-5,6-diol]
26 |  | 0.31 | COc1cc2[nH]c(-c3cnn4ccc(N5CCC[C@@H]5c5cc(F)ccc5F)nc34)nc2cn1 [Compound 85, (R)-2-(5-(2-(2,5-difluorophenyl)pyrrolidin-1-yl)pyrazolo[1,5-a]pyrimidin-3-yl)-6-methoxy-1H-imidazo[4,5-c]pyridine]
27 |  | 8.8 | Fc1ccc(F)c([C@H]2CCCN2c2ccn3ncc(-c4nc5cc(F)cc(Cl)c5[nH]4)c3n2)c1 [Compound 98, (R)-3-(7-chloro-5-fluoro-1H-benzo[d]imidazol-2-yl)-5-(2-(2,5-difluorophenyl)pyrrolidin-1-yl)pyrazolo[1,5-a]pyrimidine]
28 | > 50 |  | COc1cc2oc(-c3cnn4ccc(N5CCC[C@@H]5c5cc(F)ccc5F)nc34)nc2cc1CN1CCC[C@H]1C(=O)O [Compound 180, ((2-(5-((R)-2-(2,5-difluorophenyl)pyrrolidin-1-yl)pyrazolo[1,5-a]pyrimidin-3-yl)-6-methoxybenzo[d]oxazol-5-yl)methyl)-L-proline]
29 | ≤ 10 |  | CC(O)c1cc2nc(-c3cnn4ccc(N5CCC[C@@H]5c5cc(F)ccc5F)nc34)oc2cc1F (stereo partly drawn) [Compound 93, 1-(2-(5-((R)-2-(2,5-difluorophenyl)pyrrolidin-1-yl)pyrazolo[1,5-a]pyrimidin-3-yl)-6-fluorobenzo[d]oxazol-5-yl)ethan-1-ol]
